According to paper PMC10143822, “Structural Adaptation of the Single-Stranded DNA-Binding Protein C-Terminal to DNA Metabolizing Partners Guides Inhibitor Design” (Pharmaceutics, 2023):
Where two headings read alike, the source gives them in different places. Where a SMILES comes first, the peptide text is derived from it. [ ]: non-standard residue; d: D form. Phe(4-CF3) = N[C@@H](Cc1ccc(C(F)(F)F)cc1)C(=O)O; Phe(3-Cl) = N[C@@H](Cc1cccc(Cl)c1)C(=O)O; Phe(4-Cl) = N[C@@H](Cc1ccc(Cl)cc1)C(=O)O; Phe(4-F) = N[C@@H](Cc1ccc(F)cc1)C(=O)O; NMeF = CN[C@@H](Cc1ccccc1)C(=O)O; NMeI = CC[C@H](C)[C@H](NC)C(=O)O; 3Pal = N[C@@H](Cc1cccnc1)C(=O)O; 2Thi = N[C@@H](Cc1cccs1)C(=O)O; NMeD = CN[C@@H](CC(=O)O)C(=O)O; Aib = CC(C)(N)C(=O)O

Assays:
ExoI = target: T1, ExoI (Escherichia coli, UniProt P04995); experiment: biochemical; type: binding, E. coli
T1 construct: His-tag (cleaved yes); host or cells: E. coli BL21 (DE3) pLysS
Description: (§1) Triplicate measurements were performed using a Clariostar Plus Microplate Reader in 384-well plates for all fluorescence anisotropy (FA) experiments. The settings were 25 °C, excitation at 485 nm, emission at 510 nm, settling time of 0.2 s, and 200 flashes per well.
(§2) Competition fluorescence anisotropy experiments were carried out as follows: protein (0.5 μM either ExoI or RecO) was incubated with 50 nM F-wtSSB peptide and 0–500 μM unlabeled wtSSB (or a variant) peptide for 30 min at room temperature. For direct fluorescence anisotropy measurements, 16 µM ExoI and 7.5 µM RecO were used in the first well. After serial dilution, either 50 nM of F-mSSB or F-sSSB was added to the wells and then incubated for 30 min. Buffers used included 20 mM Tris-HCl (pH 8.0), 100 mM NaCl, 1 mM MgCl2, 1 mM 2-mercaptoethanol, 10% (v/v) glycerol, for ExoI and 20 mM Tris-HCl (pH 8.0), 200 mM NaCl, 1 mM 2-mercaptoethanol, 10% (v/v) glycerol, and 0.01% Triton-X 100 for RecO [37].
(§3) Fluorescence anisotropy values were normalized and are shown as bound fractions (BF, %). BF=r−rmin/λ(rmax−r)+r−rmin, I=2∗PG+S, r=S−PG/I, where r: anisotropy, I: total intensity, P: perpendicular intensity, S: parallel intensity, G: an instrument factor set to 1, BF: ligand fraction bound, and λ=λbound/λunbound=1 .
(§4) Competitive fluorescence anisotropy was analyzed in Origin Pro 9.5, and IC50 values were determined using the Logistic Nonlinear fit function and are shown as plots for each mutated position for each protein in Figures S4 and S6. EC50 values from direct fluorescence anisotropy titrations were plotted in Origin 9.5. Values were determined using the Logistics Nonlinear fit function.

RecO = target: T2, RecO (Escherichia coli, UniProt P0A7H3); experiment: biochemical; type: binding; details: 0.5 μM RecO, 50 nM F-wtSSB tracer
T2 construct: His-tag (TEV site) (N, cleaved yes); made in house; host or cells: E. coli Rosetta cells
T2 sequence (P0A7H3 whole entry): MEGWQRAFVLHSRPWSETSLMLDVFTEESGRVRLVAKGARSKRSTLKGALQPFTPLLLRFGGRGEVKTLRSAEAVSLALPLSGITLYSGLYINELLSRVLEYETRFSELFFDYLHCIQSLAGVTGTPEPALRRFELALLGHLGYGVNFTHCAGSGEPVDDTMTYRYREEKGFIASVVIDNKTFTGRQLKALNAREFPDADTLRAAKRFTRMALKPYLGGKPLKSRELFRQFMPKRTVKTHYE
Description: as §1, §2, §3, §4

[1] = 0–500 μM unlabeled peptide, 30 min room temperature, 20 mM Tris-HCl pH 8.0, 200 mM NaCl, 10% glycerol, 0.01% Triton-X 100, 25 °C, triplicate, read-out: IC50 on RecO, competitive fluorescence anisotropy

SMILES | IC50 (ExoI) | IC50 (RecO; [1]) | IC50 (RecO; bound given in mM, read-out: IC50 on RecO, competitive fluorescence anisotropy (no direct inhibitory effect detected))
CC[C@H](C)[C@H](NC(=O)[C@H](CC(=O)O)NC(=O)[C@H](CC(=O)O)NC(=O)[C@H](CC(=O)O)NC(=O)[C@H](Cc1cccc(Cl)c1)NC(=O)[C@H](CC(=O)O)NC(C)=O)C(=O)N1CCC[C@H]1C(=O)N[C@@H](Cc1ccccc1)C(=O)O [3-Cl-Phe2] (Ac-D[Phe(3-Cl)]DDDIPF-OH) | 2.03 ± 0.51 µM | 0.00344 ± 0.00014 mM | –
CC[C@H](C)[C@H](NC(=O)[C@H](CC(=O)O)NC(=O)[C@H](CC(=O)O)NC(=O)[C@H](CC(=O)O)NC(=O)[C@H](Cc1cccnc1)NC(=O)[C@H](CC(=O)O)NC(C)=O)C(=O)N1CCC[C@H]1C(=O)N[C@@H](Cc1ccccc1)C(=O)O [3Pal2] (Ac-D[3Pal]DDDIPF-OH) | 7.47 ± 0.88 µM | 0.0117 ± 0.0008 mM | –
CC[C@H](C)[C@H](NC(=O)[C@H](CC(=O)O)NC(=O)[C@H](CC(=O)O)NC(=O)[C@H](CC(=O)O)NC(=O)[C@H](Cc1ccccc1)NC(=O)[C@H](CC(=O)O)NC(C)=O)C(=O)N1CCC[C@H]1C(=O)N[C@@H](Cc1cccnc1)C(=O)O [3Pal8] (Ac-DFDDDIP[3Pal]-OH) | 19.9 ± 2.81 µM | 0.0319 ± 0.00416 mM | –
CC[C@H](C)[C@H](NC(=O)[C@H](CC(=O)O)NC(=O)[C@H](CC(=O)O)NC(=O)[C@H](CC(=O)O)NC(=O)[C@H](Cc1ccc(C(F)(F)F)cc1)NC(=O)[C@H](CC(=O)O)NC(C)=O)C(=O)N1CCC[C@H]1C(=O)N[C@@H](Cc1ccccc1)C(=O)O [4-CF3-Phe2] (Ac-D[Phe(4-CF3)]DDDIPF-OH) | – | 0.00327 ± 0.00042 mM | –
CC[C@H](C)[C@H](NC(=O)[C@H](CC(=O)O)NC(=O)[C@H](CC(=O)O)NC(=O)[C@H](CC(=O)O)NC(=O)[C@H](Cc1ccc(Cl)cc1)NC(=O)[C@H](CC(=O)O)NC(C)=O)C(=O)N1CCC[C@H]1C(=O)N[C@@H](Cc1ccccc1)C(=O)O [4-Cl-Phe2] (Ac-D[Phe(4-Cl)]DDDIPF-OH) | – | 0.00238 ± 0.00027 mM | –
CC[C@H](C)[C@H](NC(=O)[C@H](CC(=O)O)NC(=O)[C@H](CC(=O)O)NC(=O)[C@H](CC(=O)O)NC(=O)[C@H](Cc1ccccc1)NC(=O)[C@H](CC(=O)O)NC(C)=O)C(=O)N1CCC[C@H]1C(=O)N[C@@H](Cc1ccc(Cl)cc1)C(=O)O [4-Cl-Phe8] (Ac-DFDDDIP[Phe(4-Cl)]-OH) | 1.41 ± 0.18 µM | 0.00362 ± 0.00084 mM | –
CC[C@H](C)[C@H](NC(=O)[C@H](CC(=O)O)NC(=O)[C@H](CC(=O)O)NC(=O)[C@H](CC(=O)O)NC(=O)[C@H](Cc1ccc(F)cc1)NC(=O)[C@H](CC(=O)O)NC(C)=O)C(=O)N1CCC[C@H]1C(=O)N[C@@H](Cc1ccccc1)C(=O)O [4-F-Phe2] (Ac-D[Phe(4-F)]DDDIPF-OH) | – | 0.00305 ± 0.00028 mM | –
CC[C@H](C)[C@H](NC(=O)[C@H](CC(=O)O)NC(=O)[C@H](CC(=O)O)NC(=O)[C@H](CC(=O)O)NC(=O)[C@H](Cc1ccccc1)NC(=O)[C@H](CC(=O)O)NC(C)=O)C(=O)N1CCC[C@H]1C(=O)N[C@@H](Cc1ccc(F)cc1)C(=O)O [4-F-Phe8] (Ac-DFDDDIP[Phe(4-F)]-OH) | 3.04 ± 0.64 µM | 0.00407 ± 0.00798 mM | –
CC(=O)N[C@@H](CC(=O)O)C(=O)N[C@@H](Cc1ccccc1)C(=O)N[C@@H](CC(=O)O)C(=O)N[C@@H](CC(=O)O)C(=O)N[C@@H](CC(=O)O)C(=O)NC(C)(C)C(=O)N1CCC[C@H]1C(=O)N[C@@H](Cc1ccccc1)C(=O)O [Aib6] (Ac-DFDDD[Aib]PF-OH) | 27.6 ± 7.9 µM | – | –
CC[C@H](C)[C@H](NC(=O)[C@H](CC(=O)O)NC(=O)[C@H](CC(=O)O)NC(=O)[C@H](CC(=O)O)NC(=O)[C@H](Cc1ccccc1)NC(=O)[C@@H](CC(=O)O)NC(C)=O)C(=O)N1CCC[C@H]1C(=O)N[C@@H](Cc1ccccc1)C(=O)O [D-Asp1] (Ac-[dD]FDDDIPF-OH) | 5.55 ± 0.19 µM | 0.00656 ± 0.0014 mM | –
CC[C@H](C)[C@H](NC(=O)[C@H](CC(=O)O)NC(=O)[C@H](CC(=O)O)NC(=O)[C@@H](CC(=O)O)NC(=O)[C@H](Cc1ccccc1)NC(=O)[C@H](CC(=O)O)NC(C)=O)C(=O)N1CCC[C@H]1C(=O)N[C@@H](Cc1ccccc1)C(=O)O [D-Asp3] (Ac-DF[dD]DDIPF-OH) | 6.82 ± 0.53 µM | 0.00456 ± 0.00153 mM | –
CC[C@H](C)[C@H](NC(=O)[C@H](CC(=O)O)NC(=O)[C@@H](CC(=O)O)NC(=O)[C@H](CC(=O)O)NC(=O)[C@H](Cc1ccccc1)NC(=O)[C@H](CC(=O)O)NC(C)=O)C(=O)N1CCC[C@H]1C(=O)N[C@@H](Cc1ccccc1)C(=O)O [D-Asp4] (Ac-DFD[dD]DIPF-OH) | 3.08 ± 0.07 µM | 0.00592 ± 0.00091 mM | –
CC[C@@H](C)[C@@H](NC(=O)[C@H](CC(=O)O)NC(=O)[C@H](CC(=O)O)NC(=O)[C@H](CC(=O)O)NC(=O)[C@H](Cc1ccccc1)NC(=O)[C@H](CC(=O)O)NC(C)=O)C(=O)N1CCC[C@H]1C(=O)N[C@@H](Cc1ccccc1)C(=O)O [D-Ile6] (Ac-DFDDD[dI]PF-OH) | 56 ± 18.4 µM | – | –
CC[C@H](C)[C@H](NC(=O)[C@H](CC(=O)O)NC(=O)[C@H](CC(=O)O)NC(=O)[C@H](CC(=O)O)NC(=O)[C@@H](Cc1ccccc1)NC(=O)[C@H](CC(=O)O)NC(C)=O)C(=O)N1CCC[C@H]1C(=O)N[C@@H](Cc1ccccc1)C(=O)O [D-Phe2] (Ac-D[dF]DDDIPF-OH) | 3.49 ± 2.41 µM | 0.00275 ± 0.00059 mM | –
CC[C@H](C)[C@H](NC(=O)[C@H](CC(=O)O)NC(=O)[C@H](CC(=O)O)NC(=O)[C@H](CC(=O)O)NC(=O)[C@H](Cc1ccccc1)NC(=O)[C@H](CC(=O)O)NC(C)=O)C(=O)N1CCC[C@@H]1C(=O)N[C@@H](Cc1ccccc1)C(=O)O [D-Pro7] (Ac-DFDDDI[dP]F-OH) | 61.5 ± 16.2 µM | 0.0116 ± 0.0109 mM | –
CC(=O)N[C@@H](CC(=O)O)C(=O)N[C@@H](Cc1ccccc1)C(=O)N[C@@H](CC(=O)O)C(=O)N[C@@H](CC(=O)O)C(N)=O [DFDD] (Ac-DFDD-NH2) | 312 ± 16.7 µM | – | > 3 mM
CC[C@H](C)[C@H](NC(=O)[C@H](CC(=O)O)NC(=O)[C@H](CC(=O)O)NC(=O)[C@H](CC(=O)O)NC(=O)[C@H](Cc1ccccc1)NC(=O)[C@H](CC(=O)O)N(C)C(C)=O)C(=O)N1CCC[C@H]1C(=O)N[C@@H](Cc1ccccc1)C(=O)O [NM-Asp1] (Ac-[NMeD]FDDDIPF-OH) | 2.17 ± 0.15 µM | 0.0051 ± 0.00064 mM | –
CC[C@H](C)[C@H](NC(=O)[C@H](CC(=O)O)NC(=O)[C@H](CC(=O)O)N(C)C(=O)[C@H](CC(=O)O)NC(=O)[C@H](Cc1ccccc1)NC(=O)[C@H](CC(=O)O)NC(C)=O)C(=O)N1CCC[C@H]1C(=O)N[C@@H](Cc1ccccc1)C(=O)O [NM-Asp4] (Ac-DFD[NMeD]DIPF-OH) | 1.27 ± 0.14 µM | 0.00385 ± 0.00103 mM | –
CC[C@H](C)[C@H](NC(=O)[C@H](CC(=O)O)N(C)C(=O)[C@H](CC(=O)O)NC(=O)[C@H](CC(=O)O)NC(=O)[C@H](Cc1ccccc1)NC(=O)[C@H](CC(=O)O)NC(C)=O)C(=O)N1CCC[C@H]1C(=O)N[C@@H](Cc1ccccc1)C(=O)O [NM-Asp5] (Ac-DFDD[NMeD]IPF-OH) | 9.3 ± 0.66 µM | 0.00933 ± 0.0043 mM | –
CC[C@H](C)[C@@H](C(=O)N1CCC[C@H]1C(=O)N[C@@H](Cc1ccccc1)C(=O)O)N(C)C(=O)[C@H](CC(=O)O)NC(=O)[C@H](CC(=O)O)NC(=O)[C@H](CC(=O)O)NC(=O)[C@H](Cc1ccccc1)NC(=O)[C@H](CC(=O)O)NC(C)=O [NM-Ile6] (Ac-DFDDD[NMeI]PF-OH) | 3.95 ± 0.54 µM | – | –
CC[C@H](C)[C@H](NC(=O)[C@H](CC(=O)O)NC(=O)[C@H](CC(=O)O)NC(=O)[C@H](CC(=O)O)NC(=O)[C@H](Cc1ccccc1)N(C)C(=O)[C@H](CC(=O)O)NC(C)=O)C(=O)N1CCC[C@H]1C(=O)N[C@@H](Cc1ccccc1)C(=O)O [NM-Phe2] (Ac-D[NMeF]DDDIPF-OH) | 5.37 ± 0.53 µM | 0.00333 ± 0.00035 mM | –
CC[C@H](C)[C@H](NC(=O)[C@H](CC(=O)O)NC(=O)[C@H](CC(=O)O)NC(=O)[C@H](CC(=O)O)NC(=O)[C@H](Cc1ccccc1)NC(=O)[C@H](CC(=O)O)NC(C)=O)C(=O)N1CCC[C@H]1C(=O)N(C)[C@@H](Cc1ccccc1)C(=O)O [NM-Phe8] (Ac-DFDDDIP[NMeF]-OH) | – | 0.0647 ± 0.0189 mM | –
CC(=O)N[C@@H](CC(=O)O)C(=O)N[C@@H](Cc1ccc(Cl)cc1)C(=O)N(C)[C@@H](CC(=O)O)C(=O)N[C@@H](CC(=O)O)C(=O)N[C@@H](CCC(=O)O)C(=O)N[C@@H](CC(C)C)C(=O)N1CCC[C@H]1C(=O)N[C@@H](Cc1cccc(Cl)c1)C(=O)O [R1-sSSB-Ct] (Ac-D[Phe(4-Cl)][NMeD]DELP[Phe(3-Cl)]-OH) | – | 0.00333 mM | –
CC[C@H](C)[C@H](NC(=O)[C@H](CC(=O)O)NC(=O)[C@H](CC(=O)O)NC(=O)[C@H](CC(=O)O)NC(=O)[C@H](Cc1cccs1)NC(=O)[C@H](CC(=O)O)NC(C)=O)C(=O)N1CCC[C@H]1C(=O)N[C@@H](Cc1ccccc1)C(=O)O [Thi2] (Ac-D[2Thi]DDDIPF-OH) | 4.22 ± 0.81 µM | 0.00527 ± 0.00028 mM | –
